These results are taken from patent US20120328569A1, “INHIBITORS OF HEPATITIS C VIRUS NS5B POLYMERASE” (priority 2010, published 2012).

The first experiment relates to HCV genotype 1b replicon. Nature of the experiment: HCV replicon assay, cell ELISA with antibody to replicon-encoded NS3/4A (genotype 1b replicon). Format: cell-based, hepatitis C virus. Particulars: HCV genotype 1b replicon; 96 hours incubation; NS3/4A cell ELISA; read-out: 1b IC50. In a few lines: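 An ELISA on lysed cells, using an antibody against NS3/4A protease, served as the proxy for replicon RNA. Cells had first been exposed for 96 h to serially diluted compound in G418-free conditions. Percent of DMSO control was fitted with a four-parameter function to give IC50.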
Take `CCOP(=O)(O)CCCN(c1cc2oc(-c3ccc(F)cc3)c(C(=O)NC)c2cc1-c1ccc(OC)c(-c2nc3c(F)cccc3o2)c1)S(C)(=O)=O` [Example 844]: the half-maximal inhibitory concentration (IC50) – broadly, the concentration that inhibits the measured activity by half – was found to be 3.88 nM.

Staying with this experiment, now noted: Hepatitis C virus, 96 h, read-out: 1b IC50(nM), HCV genotype 1b replicon; 96 hours incubation; NS3/4A cell ELISA.
For the molecule `CNC(=O)c1c(-c2ccc(F)cc2)oc2cc(N(CC(O)Cn3ccnc3)S(C)(=O)=O)c(-c3ccc(OC)c(-c4nc5c(F)cccc5o4)c3)cc12` (centres unmarked) [Example 825], the IC50 is 8.88 nM.
Same read-out and setting: in the case of `CNC(=O)c1c(-c2ccc(F)cc2)oc2cc(N(CC(O)Cn3ncc4ccccc43)S(C)(=O)=O)c(-c3ccc(OC)c(-c4nc5c(F)cccc5o4)c3)cc12` (centres unmarked) [Example 827] it was 11.8 nM; in that of `CNC(=O)c1c(-c2ccc(F)cc2)oc2cc(N(CC(C)N)S(C)(=O)=O)c(-c3cccc(-c4nc5ncccc5o4)c3)cc12` (centres unmarked) [Example 830], 8.47 nM; in that of `CNC(=O)c1c(-c2ccc(F)cc2)oc2cc(N(C3CN(C(=O)[C@@H](NC(=O)OC)C(C)C)C3)S(C)(=O)=O)c(-c3ccc(OC)c(-c4nc5c(F)cccc5o4)c3)cc12` [Example 834], 11.5 nM.
As for `CNC(=O)c1c(-c2ccc(F)cc2)oc2cc(N(C[C@@H](C)NC(=O)[C@@H](NC(=O)OC)C(C)C)S(C)(=O)=O)c(-c3cccc(-c4nc5ncccc5o4)c3)cc12` [Example 836], the IC50 is 82 nM.
Same read-out and setting: in the case of `CNC(=O)c1c(-c2ccc(F)cc2)oc2cc(N(CCCP(=O)(O)O)S(C)(=O)=O)c(-c3ccc(OC)c(-c4nc5c(F)cccc5o4)c3)cc12` [Example 843] it was 19.5 nM; in that of `CN(C(=O)c1c(-c2ccc(F)cc2)oc2cc(N(C)S(C)(=O)=O)c(-c3cccc(-c4cc5ccccc5[nH]4)c3)cc12)c1ccncc1` [Example 848], 6440 nM.
Same read-out and setting: with `CN(c1cc2oc(-c3ccc(F)cc3)c(C(=O)Nc3cccnc3)c2cc1-c1cccc(-c2cc3ccccc3[nH]2)c1)S(C)(=O)=O` [Example 851, 5-(3-(1H-indol-2-yl)phenyl)-2-(4-fluorophenyl)-6-(N-methylmethylsulfonamido)-N-(pyridin-3-yl)benzofuran-3-carboxamide] the figure was 350 nM; with `CNC(=O)c1c(-c2ccc(F)cc2)oc2cc(N(C)S(C)(=O)=O)c(-c3ccc(F)c(-c4cc5cccnc5[nH]4)c3)cc12` [Example 855], 1.2 nM.
Still for that read-out and setting: with `CNC(=O)c1c(-c2ccc(F)cc2)oc2cc(N(CCCO)S(C)(=O)=O)c(-c3cc(F)cc(-c4nc5ncccc5o4)c3)cc12` [Example 856] the figure was 4 nM.
For the molecule `CNC(=O)c1c(-c2ccc(F)cc2)oc2cc(N(C)S(C)(=O)=O)c(-c3ccc(OC)c(-c4nc5cc(F)ccc5o4)c3)cc12` [Example 857], the IC50 is 2.6 nM.
The same measure, in the same setting: in the case of `CNC(=O)c1c(-c2ccc(F)cc2)oc2cc(N(C)S(C)(=O)=O)c(-c3ccc(OC)c(-c4nc5cccc(C#N)c5o4)c3)cc12` [Example 858] it was 2.8 nM; in that of `CNC(=O)c1c(-c2ccc(F)cc2)oc2cc(N(CCC(C)(C)O)S(C)(=O)=O)c(-c3cccc(-c4nc5ncccc5o4)c3)cc12` [Example 859], 2.1 nM; in that of `CNC(=O)c1c(-c2ccc(F)cc2)oc2cc(N(C)S(C)(=O)=O)c(-c3ccc(OC)c(-c4cc5cc(F)ccc5[nH]4)c3)cc12` [Example 860], 1.9 nM.
As for `CNC(=O)c1c(-c2ccc(F)cc2)oc2cc(N(C)S(C)(=O)=O)c(-c3cc(OC)cc(-c4cc5cccnc5[nH]4)c3)cc12` [Example 861], the IC50 came out at 1.8 nM.
Still for that read-out and setting: in the case of `CNC(=O)c1c(-c2ccc(F)cc2)oc2cc(N(C)S(C)(=O)=O)c(-c3cc(F)cc(-c4nc5ncc(F)cc5o4)c3)cc12` [Example 862] it was 1.3 nM.
The same measure, in the same setting: with `CNC(=O)c1c(-c2ccc(F)cc2)oc2cc(N(CCCF)S(C)(=O)=O)c(-c3ccc(OC)c(-c4nc5ncccc5o4)c3)cc12` [Example 863] the figure was 1.8 nM; with `CNC(=O)c1c(-c2ccc(F)cc2)oc2cc(N(C)S(C)(=O)=O)c(-c3ccc(Cl)c(-c4nc5c(F)cccc5o4)c3)cc12` [Example 865], 4.7 nM.
Same read-out and setting: with `CNC(=O)c1c(-c2ccc(F)cc2)oc2cc(N(C)S(C)(=O)=O)c(-c3cc(OC)cc(-c4nc5ncccc5o4)c3)cc12` [Example 866] the figure was 3.1 nM; with `CNC(=O)c1c(-c2ccc(F)cc2)oc2cc(N(CCCF)S(C)(=O)=O)c(-c3cccc(-c4nc5ncccc5o4)c3)cc12` [Example 868], 1.3 nM; with `CNC(=O)c1c(-c2ccc(F)cc2)oc2cc(N(CC(F)F)S(C)(=O)=O)c(-c3cccc(-c4nc5ncccc5o4)c3)cc12` [Example 869], 2.3 nM.
Consider `CNC(=O)c1c(-c2ccc(F)cc2)oc2cc(N(CCF)S(C)(=O)=O)c(-c3ccc(OC)c(-c4nc5ncccc5o4)c3)cc12` [Example 870], for which the IC50 was found to be 1.3 nM.
Same read-out and setting: with `CNC(=O)c1c(-c2ccc(F)cc2)oc2cc(N(CCF)S(C)(=O)=O)c(-c3ccc(OC)c(-c4nc5cccc(F)c5o4)c3)cc12` [Example 871] the figure was 3.5 nM; with `CNC(=O)c1c(-c2ccc(F)cc2)oc2cc(N(CCC(F)(F)F)S(C)(=O)=O)c(-c3cccc(-c4nc5ncccc5o4)c3)cc12` [Example 872], 4.7 nM; with `CNC(=O)c1c(-c2ccc(F)cc2)oc2cc(N(CCF)S(C)(=O)=O)c(-c3cc(F)cc(-c4nc5ncccc5o4)c3)cc12` [Example 873], 3.4 nM.
Same read-out and setting: with `CNC(=O)c1c(-c2ccc(F)cc2)oc2cc(N(C)S(C)(=O)=O)c(-c3ccc(OC)c(-c4nc5c(F)ccc(F)c5o4)c3)cc12` [Example 874] the figure was 2.1 nM; with `CNC(=O)c1c(-c2ccc(F)cc2)oc2cc(N(C(C)CF)S(C)(=O)=O)c(-c3cccc(-c4nc5ncccc5o4)c3)cc12` (centres unmarked) [Example 875], 2.1 nM; with `CNC(=O)c1c(-c2ccc(F)cc2)oc2cc(N(CC(F)F)S(C)(=O)=O)c(-c3cc(F)cc(-c4nc5ncccc5o4)c3)cc12` [Example 876], 3.5 nM.
Still for that read-out and setting: in the case of `CNC(=O)c1c(-c2ccc(F)cc2)oc2cc(N(CC(F)F)S(C)(=O)=O)c(-c3ccc(OC)c(-c4nc5ncccc5o4)c3)cc12` [Example 877] it was 5.1 nM; in that of `CNC(=O)c1c(-c2ccc(F)cc2)oc2cc(N(CC(F)F)S(C)(=O)=O)c(-c3ccc(OC)c(-c4nc5cccc(F)c5o4)c3)cc12` [Example 878], 17.2 nM; in that of `CNC(=O)c1c(-c2ccc(F)cc2)oc2cc(N(CCC(C)(C)O)S(C)(=O)=O)c(-c3cc(F)cc(-c4nc5ncccc5o4)c3)cc12` [Example 879], 2.6 nM.
`CNC(=O)c1c(-c2ccc(F)cc2)oc2cc(N(CCC(C)(C)O)S(C)(=O)=O)c(-c3ccc(OC)c(-c4nc5ncccc5o4)c3)cc12` [Example 880]: the IC50 was found to be 2.9 nM.

Still in this experiment, the particulars now being: read-out: 1b IC50; HCV genotype 1b replicon; 96 hours incubation; NS3/4A cell ELISA.
Turning to `CNC(=O)c1c(-c2ccc(F)cc2)oc2cc(N(CC(O)Cn3ccnc3)S(C)(=O)=O)c(-c3ccc(OC)c(-c4nc5c(F)cccc5o4)c3)cc12` (centres unmarked) [Example 824], the half-inhibitory concentration (IC50) came to 17.7 nM.
Same read-out and setting: with `CNC(=O)c1c(-c2ccc(F)cc2)oc2cc(N(CCF)S(C)(=O)=O)c(-c3cccc(-c4nc5ncccc5o4)c3)cc12` [Example 867] the figure was 1.8 nM.
